From patent US20220160604A1, “EMULSION COMPOSITION COMPRISING ULTRAVIOLET WAVELENGTH CONVERSION SUBSTANCE AND ORGANIC OILY PHASE THICKENER” (Shiseido Company, Ltd., priority 2019, published 2022)

Test system: Human dermal fibroblasts
Assay: Cell activity (AlamarBlue) of cells irradiated with UV through a UV wavelength conversion substance
Assay type: cell-based
Details: for cell activity at UV irradiation (relative fluorescence intensity): UV dose 0, 10, 25, 50, 75 or 100 mJ/cm^2, FIG. 3
Experimental: 1. Human dermal fibroblasts and human skin keratinocytes purchased from Kurabo Industries Ltd. were used. A cell suspension (1 mL) stored in liquid nitrogen was thawed in a water bath (37° C.) to an extent that small ice pellets remained, and then diluted with 9 mL of warm medium.
10. Depending on the cell type, fibroblasts were resuspended in FGM or KGM at a concentration of 2×10^4 cells/well (500 μL), and keratinocytes were resuspended in FGM or KGM at a concentration of 4×10^4 cells/well (500 μL) and plated 24-well plates.
11. Cells were seeded in 24-well plates and the media were changed periodically (once every 2 days for fibroblasts and once every 2 to 3 days for keratinocytes) and the cells were grown until 60 to 70% confluence (depending on the type of experiment) was reached. (Note: Fibroblasts should reach the desired confluency in 24 hours at a cell density of 2×10^4 cells/well. When the cell density is low, for example, 1×10^4 cells/well, it takes 48 hours for fibroblasts to reach the desired confluency.)
12. 24 hours before irradiation, the medium was changed to a supplement-free medium (in the case of keratinocytes) or a medium containing a low concentration of serum (0.5% FCS) (in the case of fibroblasts).
1. A solar simulator was turned on at least 30 minutes before irradiation to warm up a lamp. The solar simulator was set to use a UG11 filter. UG11 filters are filters that allow only UVB to pass and cut light of other wavelengths.
3. The cells prepared in Experiment 1-2 were washed once with warm PBS.
4. To each well was added 0.5 mL of a warmed Martinez solution (145 mM NaCl, 5.5 mM KCl, 1.2 mM MgCl2.6H2O, 1.2 mM NaH2PO4.2H2O, 7.5 mM HEPES, 1 mM CaCl2, and 10 mM D-glucose).
5. As depicted in FIG. 1, cell wells were placed on a plate. Then, 0.4 ml of a solution containing the UV wavelength conversion substances (1) to (4) prepared in Experiment 1-1 was injected into each well of a 24-well plate. […]
4. Fluorescence measurement values at 544 nm/590 nm were read using a fluorometer (OPwave +, Ocean Photonics). […]

Q: What does the source list for C-phycocyanin?
A: cell activity at UV irradiation (relative fluorescence intensity) (0.4% C-phycocyanin solution): the decrease in cell activity was suppressed; cell activity at UV irradiation (relative fluorescence intensity) (2% C-phycocyanin solution): the cell activity was even increased; cell activity of cells having activity temporarily reduced by UV (relative fluorescence intensity) (pre-irradiation 400 mJ/cm^2 without substance, then UV 0-200 mJ/cm^2 through 0.4% or 2% C-phycocyanin (effect equivalent at both), FIG. 5): cell activity was recovered
